Experimental data reported in patent US10729157B2, “Methods for regulating weight and size of animals” (Oragenics, Inc., priority 2004, dated 2020).
Like-named read-outs stand apart in the source and are kept apart here.

What was measured:
[1] = rats on a high glycine diet
Excerpt: Blood samples were withdrawn from the tail vein of the rats under study and sent to Charles River Laboratories for Mutli-Analyte Profile testing. […] Am J Physiol Regul Integr Comp Physiol, 2004. […] Nahrung, 1980. 24(7):663-71; Sugiyama et al., Dietary sulfur-containing amino acids and glycine as determinant factors in plasma cholesterol regulation in growing rats. J Nutr Sci Vitaminol (Tokyo), 1985. […] Pol J Pharmacol, 2003. […] Nutrition Research, 1999. 19(12):1777-1789; Yoshida et al., Effects of addition of arginine, cystine, and glycine to the bovine milk-simulated amino acid mixture on the level of plasma and liver cholesterol in rats. J Nutr Sci Vitaminol (Tokyo), 1988. 34(6):567-76; Olson et al., Effect of amino acid diets upon serum lipids in man. Am J Clin Nutr, 1970. […] Vopr Med Khim, 1984. 30(2):78-80; Yagasaki et al., Effects of dietary methionine, cystine, and glycine on endogenous hypercholesterolemia in hepatoma-bearing rats. J Nutr Sci Vitaminol (Tokyo), 1986. […] J Biol Chem, 1990. 265(10):5910-6.

abdominal fat [2] = conditions: ZDF rats, 20% glycine diet, at necropsy
Excerpt: (§1) Adult male Zucker diabetic fatty (ZDF) rats were randomly assigned in treatment groups of 3 rats in each group to diets comprising 20% glycine in their feed or a non-supplemented diet. ZDF rats are obese, hyperlipidemic, and insulin resistant. Weight measurements were obtained on the indicated day of the study. The analyst undertaking the weight measurement was blinded relative to the diet of the animal for which the observation was being recorded. The bars represent±1 standard error of the weights of the rats in each group on the indicated observation day. Data was analyzed using a One-Way Analysis of Variance and subjected to post-hoc analysis using Dunnett's Multiple Comparison Test. […] Measurements of the abdominal fat content of each rat were obtained at necropsy (FIG. 7).

[3] = adult male ZDF rats, 20% glycine diet vs non-supplemented, day 15 through day 36
Excerpt: as §1

[4] = tested on: 3T3-L1 cells differentiated into adipocytes
abdominal fat [5] = tested on: abdominal fat
Protocol: Five rats from each treatment group were chosen at random and euthanized on day 30 of the study. Measurements of the abdominal fat content of each rat were obtained at necropsy (FIG. 2). The analyst undertaking the measurement was blinded relative to the treatment group of the animal for which the observation was being recorded. Data was analyzed using a One-Way Analysis of Variance and subjected to post-hoc analysis using Dunnett's Multiple Comparison Test.
(§2) The identical experiment was performed with female adult (180 day old) Fisher rats.

[6] = Glycine added to the diet of laboratory animals (general statement)
[7] = Excerpt: Rats were randomly divided, caged separately, and fed water ad libitum and diet TD 80406 diet (Harlan Teklad, Madison, Wis.). The TD 80406 diet has about 1-2% glycine present in the lactalbumin component and is considered a non-supplemented diet.
Adult (180 day old) male Fisher rats were randomly assigned in treatment groups of 10 rats in each group to diets comprising 5% or 20% glycine in their feed or a non-supplemented diet. Animal and food weight measurements were obtained on the indicated day of the study. The analyst undertaking the weight measurement was blinded relative to the diet of the animal for which the observation was being recorded. The bars represent±1 standard error of the weights of the rats in each group on the indicated observation day.
as §2

Remark: listed apart in the source
BAD = tested on: BAD
Protocol: Adult male Sprague-Dawley rats were randomly assigned in treatment groups of 3 rats in each group to diets comprising 5% or 20% of glycine in their feed or a non-supplemented diet. On day 20 of the study the animals were euthanized and the adipose tissue obtained at necropsy. Total proteins were extracted from the adipose tissue.
Assay of the tissue extracts for the ability to phosphorylate BAD at serine position 136 was performed as follows: One mg of tissue extract was added to BAD agarose (Upstate, Waltham, Mass.). The reaction volume was adjusted to 1 ml using RIPA buffer (with anti-phosphatases and anti-proteases) (Tris-HCl [pH 7.4] 50 mM; NP-40 1%; Na deoxycholate 0.25%; NaCl 150 mM; EDTA 1 mM; PMSF 1 mM; Protease Arrest 100 ul; sodium orthovanadate 1 mM; sodium fluoride 1 mM) and incubated for 0.5 hr at 30° C. The agarose beads were collected by centrifugation (5 sec at 12,000× g). The supernatant was removed and the beads washed 3× with ice cold TBS. The BAD-agarose was resuspended in 40 μl of sample buffer, boiled for 5 min, and centrifuged (5 min at 12,000× g). Seven microliters of sample were electrophoresed on a 15% gel (Tris-Glycine). The protein was transferred by western blotting to a nitrocellulose membrane and blocked with 5% NFM in TTBS at 4° C. with shaking. The membrane was washed with 2% NFM in TTBS. Each lane was blotted with rabbit anti-phospho-BAD 136 antibody at (1:1000 in 2% NFM/TTBS) for 2 hrs at room temperature. The blots were washed three times for 5 min with TTBS. The blots were incubated with goat anti-Rabbit-HRP (1:5000 in 2% NFM/TTBS). The blots were washed 3× for 5 min with TTBS and 2× 5 min with TBS. Visualization of phosphorylated BAD was accomplished with a chemiluminesence substrate (Pierce Super-Signal Substrate™).

[8] = remark: listed apart in the source
Excerpt: Adult female Sprague-Dawley rats were randomly assigned in treatment groups of 3 rats in each group to diets comprising 5, 10, 15, or 20% glycine in their feed or a non-supplemented diet. Weight measurements were obtained on the indicated day of the study. The analyst undertaking the weight measurement was blinded relative to the diet of the animal for which the observation was being recorded. The bars represent±1 standard error of the weights of the rats in each group on the indicated observation day. […] Data was analyzed using a One-Way Analysis of Variance and subjected to post-hoc analysis using Dunnett's Multiple Comparison Test.

[9] = for size and weight after switch to diet without glycine supplementation: 4 weeks glycine diet then 10% to 0%, within one month; for growth (length) / weight gain: glycine added to diet
Excerpt: Animals treated for 4 weeks with diet supplemented with glycine were switched to diet containing no glycine supplementation (FIGS. 18 and 19, 10% to 0%). […] Animals treated for 4 weeks with diet supplemented with glycine were switched to diet containing no glycine supplementation (FIGS. 20 and 21, 10% to 0%).

abdominal fat [10] = conditions: adult female Sprague-Dawley rats, glycine from 5% to 20% in diet vs non-supplemented, day 30
Excerpt: Adult female Sprague-Dawley rats were randomly assigned in treatment groups of 3 rats in each group to diets comprising 5, 10, 15, or 20% glycine in their feed or a non-supplemented diet. The rats in each treatment group were euthanized on day 30 of the study. Measurements of the abdominal fat content of each rat were obtained at necropsy. The analyst undertaking the measurement was blinded relative to the treatment group of the animal for which the observation was being recorded. Data was analyzed using a One-Way Analysis of Variance and subjected to post-hoc analysis using Dunnett's Multiple Comparison Test.

[11] = adult female Fisher rats compared with males

NCC(=O)O [glycine]
adiponectin levels [1]: increase in a manner trending towards significance
leptin levels [1]: Decrease in leptin levels, trending toward significance
serum HDL level [1]: statistically significant (p≤0.05) reduction
serum cholesterol level [1]: statistically significant (p≤0.05) reduction
serum triglyceride level [1]: statistically significant (p≤0.05) reduction
abdominal fat content (abdominal fat [2]): statistically significant (p≤0.05) less abdominal fat
weight [3]: statistically significant decrease in weight
apoptosis by TUNEL staining ([4]; glycine in media equivalent to 2× the normal circulating levels in the blood, preliminary experiments): positive TUNEL staining
TUNEL staining ([4]; high concentrations of glycine in the medium vs non-treated cells): increased staining for TUNEL
reduction in abdominal fat (abdominal fat [5]; [11]): greater than that observed for the male
abdominal fat content (abdominal fat [5]; adult male Fisher rats, 20% glycine diet vs 5% glycine or non-supplemented diet, day 30): statistically significant less abdominal fat
weight loss ([6]; dietary glycine at high levels (20% by weight)): significant weight loss
weight ([6]; glycine added to the diet of laboratory animals, rodent strains and dogs): dose-dependent loss in weight
side-effects ([6]; optimal and super-optimal doses, prolonged administration): no deleterious side-effects
effect on weight loss and abdominal fat content [7, 11]: somewhat more pronounced in the females than in the males
weight ([7]; adult male Fisher rats, 20% glycine diet vs 5% glycine or non-supplemented diet, day 14-30): statistically lighter
weight after return to non-supplemented diet ([7]; adult male Fisher rats, 20% glycine group returned to non-supplemented diet on day 30, vs control after day 32): no statistical difference
weight at end of Recovery Phase ([7]; treated adult female Fisher rats vs control): did not rebound to the level of the control animals
gross findings at necropsy (15% glycine and 85% TD80406 diet for 6 weeks, rats 24 days old at start): No gross lesions or treatment related abnormalities other than weight
blood chemistry and complete blood counts (15% glycine diet for 6 weeks vs control diet): No differences
histopathological examination of tissues (one animal fed high glycine diet, brain, lung, liver, adrenal gland, kidneys, urinary bladder, heart, stomach, intestines): no microscopic changes from normal histology
ability of WAT protein extracts to phosphorylate BAD at serine position 136 (BAD; WAT of treated animals, preliminary data): did not have the ability to phosphorylate BAD
phosphorylation state of BAD at tyrosine 136 (BAD; liver tissue extracts): no such decrease
phosphorylation state of BAD at tyrosine 136 (BAD; muscle extracts): no such decrease
loss of BAT tissue (BAD; preliminary experiments, glycine-fed rats): no significant loss
phosphorylation of BAD at tyrosine 136 (BAD; white adipose tissue (WAT), adult male rats, 5% or 20% glycine diet, day 20): dose dependent decrease
weight ([8]; adult female Sprague-Dawley rats, 20% glycine diet vs non-supplemented, day 15 through day 36): statistically significant decrease in weight
weight loss ([8]; female Sprague-Dawley rats, high glycine in the diet): rapid significant weight loss
size and weight after switch to diet without glycine supplementation ([9]; immature female rats): same size and weight as the control animals
growth (length) ([9]; immature female rats): dose-dependent reduction
weight gain ([9]; immature female rats): dose-dependent reduction
size and weight after switch to diet without glycine supplementation ([9]; immature male rats): same size and weight as the control animals
growth (length) ([9]; immature male rats): dose-dependent reduction
weight gain ([9]; immature male rats): dose-dependent reduction
abdominal fat content (abdominal fat [10]): statistically significant less abdominal fat
